Measurements taken from paper PMC10709440, “High-throughput ligand profile characterization in novel cell lines expressing seven heterologous insect olfactory receptors for the detection of volatile plant biomarkers” (Scientific Reports, 2023).
Like-named read-outs stand apart in the source and are kept apart here.

Tests used:
Drosophila OR47a = molecular target: T1, Drosophila OR47a (Drosophila melanogaster, UniProt P81921); assay: Calcium ion fluorescence (GCaMP6) assay, OR47a stable HEK293 cell line; assay type: cell-based; settings: for Average response: OR47a cell line, mean of biological replicates; for DF norm AVERAGE OR47a: normalized fluorescence change, values below 0.05 threshold given as 0
T1 construct: expressed in transfected cells
T1 sequence (P81921 1-385): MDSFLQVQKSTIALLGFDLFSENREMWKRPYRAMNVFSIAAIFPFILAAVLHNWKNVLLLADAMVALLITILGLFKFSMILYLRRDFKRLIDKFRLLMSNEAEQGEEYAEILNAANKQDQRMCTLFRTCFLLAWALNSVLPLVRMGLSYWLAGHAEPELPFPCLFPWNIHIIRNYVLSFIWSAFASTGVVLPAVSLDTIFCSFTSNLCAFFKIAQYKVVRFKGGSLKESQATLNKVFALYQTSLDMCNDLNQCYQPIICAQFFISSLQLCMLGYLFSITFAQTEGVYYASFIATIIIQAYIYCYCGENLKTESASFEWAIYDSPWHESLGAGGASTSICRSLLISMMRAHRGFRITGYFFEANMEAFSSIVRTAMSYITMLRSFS
T1 sequence (Q9VNB5 1-486 partner): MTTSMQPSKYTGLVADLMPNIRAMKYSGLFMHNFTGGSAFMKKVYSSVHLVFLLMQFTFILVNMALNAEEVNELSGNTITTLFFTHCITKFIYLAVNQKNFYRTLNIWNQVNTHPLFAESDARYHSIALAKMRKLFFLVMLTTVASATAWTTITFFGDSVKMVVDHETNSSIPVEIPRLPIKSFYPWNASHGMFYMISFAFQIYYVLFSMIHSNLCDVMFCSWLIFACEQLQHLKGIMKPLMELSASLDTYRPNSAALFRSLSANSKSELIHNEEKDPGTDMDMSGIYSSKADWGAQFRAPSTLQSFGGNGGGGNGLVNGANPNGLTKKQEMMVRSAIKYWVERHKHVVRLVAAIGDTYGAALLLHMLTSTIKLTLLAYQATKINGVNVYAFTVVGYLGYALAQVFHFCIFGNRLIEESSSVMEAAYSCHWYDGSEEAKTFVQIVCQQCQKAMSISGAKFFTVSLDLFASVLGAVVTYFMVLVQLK
Outline: (§1)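 Responses are VUAA1-normalized ΔF: each VOC-evoked calcium signal, (FMAX−F0)/F0 over 30 s after injection, divided by the same line's mean 50 µM VUAA1 response. Cells were doxycycline-induced HEK293 with GCaMP6 and the cognate Drosophila OR, in HEPES buffer pH 7.3; ligands tested 0.01–100 μM.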

Drosophila OR13a = molecular target: T2, Drosophila OR13a (Drosophila melanogaster, UniProt Q9VXL0); assay: Calcium ion fluorescence (GCaMP6) assay, OR13a stable HEK293 cell line; assay type: cell-based; settings: for DF norm AVERAGE OR13a: normalized fluorescence change, values below 0.05 threshold given as 0
T2 construct: expressed in transfected cells
T2 sequence (Q9VXL0 1-418): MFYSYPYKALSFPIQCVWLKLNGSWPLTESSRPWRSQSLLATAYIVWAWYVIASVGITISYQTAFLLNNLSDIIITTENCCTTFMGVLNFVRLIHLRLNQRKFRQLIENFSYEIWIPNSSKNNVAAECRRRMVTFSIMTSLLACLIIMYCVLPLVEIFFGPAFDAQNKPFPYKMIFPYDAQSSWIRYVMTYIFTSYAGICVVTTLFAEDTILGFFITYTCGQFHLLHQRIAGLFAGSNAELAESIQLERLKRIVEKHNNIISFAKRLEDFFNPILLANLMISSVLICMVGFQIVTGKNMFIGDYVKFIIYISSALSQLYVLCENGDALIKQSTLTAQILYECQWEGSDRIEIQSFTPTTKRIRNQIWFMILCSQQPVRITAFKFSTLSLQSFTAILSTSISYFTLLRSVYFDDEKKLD
T2 sequence (Q9VNB5 1-486 partner): T1 sequence (Q9VNB5 1-486 partner)
Outline: as §1

[1] = HEK293, read-out: OR47a Average response (VUAA1-normalized)
[2] = HEK293, read-out: OR47a response (VUAA1-normalized response)

CCCCCC(=O)CC [3-octanone]
activation at 1 µM (Drosophila OR47a; [1]): 7% | activation at 10 µM (Drosophila OR47a; [1]): 16% | activation at 100 µM (Drosophila OR47a; [1]): 73% | activation at 1 µM (Drosophila OR47a; [2]): 7.45% | activation at 10 µM (Drosophila OR47a; [2]): 16% | activation at 100 µM (Drosophila OR47a; [2]): 73% | Average response (Drosophila OR47a; odorant cc. 1 µM): 0.0745 | Average response (Drosophila OR47a; odorant cc. 10 µM): 0.16 | Average response (Drosophila OR47a; odorant cc. 100 µM): 0.73 | DF norm AVERAGE OR47a (Drosophila OR47a; concentration 1): 0.07449 | DF norm AVERAGE OR47a (Drosophila OR47a; concentration 10): 0.1581 | DF norm AVERAGE OR47a (Drosophila OR47a; concentration 100): 0.7333 | activation at 1 µM (Drosophila OR13a; HEK293, read-out: OR13a Average response (VUAA1-normalized), 1 μM VOC, 50 μM VUAA1 = 1, responses not exceeding 0.05 considered 0): 0% | activation at 10 µM (Drosophila OR13a; HEK293, read-out: OR13a Average response (VUAA1-normalized), 10 μM VOC, 50 μM VUAA1 = 1, responses not exceeding 0.05 considered 0): 0% | activation at 100 µM (Drosophila OR13a; HEK293, read-out: OR13a Average response (VUAA1-normalized), 100 μM VOC, 50 μM VUAA1 = 1, responses not exceeding 0.05 considered 0): 2.55% | activation at 1 µM (Drosophila OR13a; HEK293, read-out: OR13a response (VUAA1-normalized response), VOC concentration 1 μM): 0% | activation at 10 µM (Drosophila OR13a; HEK293, read-out: OR13a response (VUAA1-normalized response), VOC concentration 10 μM): 0% | activation at 100 µM (Drosophila OR13a; HEK293, read-out: OR13a response (VUAA1-normalized response), VOC concentration 100 μM): 0% | DF norm AVERAGE OR13a (Drosophila OR13a; concentration 1): 0 | DF norm AVERAGE OR13a (Drosophila OR13a; concentration 10): 0 | DF norm AVERAGE OR13a (Drosophila OR13a; concentration 100): 0

C=C(C)C1CCC2(C)OC2C1 (single isomer, unassigned; (+)) [(+)-limonene oxide]
Average response (Drosophila OR47a; odorant cc. 1 µM): 0.00 | Average response (Drosophila OR47a; odorant cc. 10 µM): 0.00 | Average response (Drosophila OR47a; odorant cc. 100 µM): 0.00 | OR47a response (VUAA1-normalized response) (Drosophila OR47a; VOC concentration 1 μM): 0.00 | OR47a response (VUAA1-normalized response) (Drosophila OR47a; VOC concentration 10 μM): 0.00 | OR47a response (VUAA1-normalized response) (Drosophila OR47a; VOC concentration 100 μM): 0.00 | DF norm AVERAGE OR47a (Drosophila OR47a; concentration 1): 0 | DF norm AVERAGE OR47a (Drosophila OR47a; concentration 10): 0 | DF norm AVERAGE OR47a (Drosophila OR47a; concentration 100): 0 | OR13a Average response (VUAA1-normalized) (Drosophila OR13a; 1 μM VOC, 50 μM VUAA1 = 1, responses not exceeding 0.05 considered 0): 0.00 | OR13a Average response (VUAA1-normalized) (Drosophila OR13a; 10 μM VOC, 50 μM VUAA1 = 1, responses not exceeding 0.05 considered 0): 0.00 | OR13a Average response (VUAA1-normalized) (Drosophila OR13a; 100 μM VOC, 50 μM VUAA1 = 1, responses not exceeding 0.05 considered 0): 0.00 | OR13a response (VUAA1-normalized response) (Drosophila OR13a; VOC concentration 1 μM): 0.00 | OR13a response (VUAA1-normalized response) (Drosophila OR13a; VOC concentration 10 μM): 0.00 | OR13a response (VUAA1-normalized response) (Drosophila OR13a; VOC concentration 100 μM): 0.00 | DF norm AVERAGE OR13a (Drosophila OR13a; concentration 1): 0 | DF norm AVERAGE OR13a (Drosophila OR13a; concentration 10): 0 | DF norm AVERAGE OR13a (Drosophila OR13a; concentration 100): 0
